Data as given in patent US12427106B2, “Elastic sheet with function of re-activating endometrial basal layer in uterine cavity and forming method thereof” (YIPURUN (SHANGHAI) BIOTECHNOLOGY CO., LTD., priority 2018, dated 2025).

What was measured:
[1] = blood concentration in vivo of New Zealand rabbits after implantation or oral dose
Description: New Zealand rabbits within 10 weeks after the implantation. […] The blood concentrations of subjects were measured per 2 weeks, and the trend in vivo matched the release in vitro despite the few of data points. […] New Zealand rabbits within 10 weeks after the implantation. […] The blood concentrations of subjects were measured per 2 weeks, and the trend in vivo matched the release in vitro despite the few of data points. […] It can be seen from the FIG. that the blood concentration in vivo is consistent with the release in vitro trend, thus the treatment in vivo can be adjusted by the release in vitro. The following table gives a comparison of a relationship between the oral dose and the blood concentration in vivo and another relationship between the released drug of the elastic sheet and the blood concentration in vivo: Following table 10 gives a comparison of a relationship between the oral dose and the blood concentration in vivo and another relationship between the released drug of the elastic sheet and the blood concentration in vivo: […]

[2] = blood concentration in vivo of subjects after implantation or oral dose
Description: The blood concentrations of subjects were measured per 2 weeks, and the trend in vivo matched the release in vitro despite the few of data points.
It can be seen from the FIG. that the blood concentration in vivo is consistent with the release in vitro trend, thus the treatment in vivo can be adjusted by the release in vitro.
The following table gives a comparison of a relationship between the oral dose and the blood concentration in vivo and another relationship between the released drug of the elastic sheet and the blood concentration in vivo: […]

[3] = cited from earlier work

| Compound | Blood concentration ([1]; Oral dose 1000 μg/d) [nM] | Blood concentration ([1]; Oral dose 2000 μg/d) [nM] | Blood concentration ([1]; Oral dose 3000 μg/d) [nM] | Blood concentration ([2]; Oral dose 1000 μg/d) [nM] | Blood concentration ([2]; Oral dose 2000 μg/d) [nM] | Blood concentration ([2]; Oral dose 3000 μg/d) [nM] | Blood concentration ([2]; Oral dose 4000 μg/d) [nM] | increase of the serum concentration of estradiol (E2) ([3]; oral administration of 4 mg (2 mg bid)) [pg/mL] | absorption effect of vaginal administration relative to oral administration ([3]; vaginal versus oral) [times] |
| --- | --- | --- | --- | --- | --- | --- | --- | --- | --- |
| C[C@]12CC[C@@H]3c4ccc(O)cc4CC[C@H]3[C@@H]1CC[C@@H]2O [estradiol] | 0.1112 | 0.2558 | 0.4985 | 0.1112 | 0.2558 | 0.4985 | 0.9893 |  |  |
| CCCCC(=O)O[C@H]1CC[C@H]2[C@@H]3CCc4cc(O)ccc4[C@H]3CC[C@]12C [estradiol valerate] |  |  |  |  |  |  |  | 211.89 ± 57.40 | 4 to 8 |
